Results taken from patent publication US7994162B2, “2-alkoxy-3,4,5-trihydroxy-alkylamide-benzazepines, the preparation and use thereof, and compositions containing the same” (Sanofi-Aventis, priority 2006, dated 2011).

Test system: not listed separately
Test: in vitro
Conditions: human, Caco-2
For CO[C@@H](C(=O)N[C@H]1CCc2cc(-c3ccccc3)ccc2NC1=O)[C@H](O)[C@@H](O)[C@H](O)/C=C/C(C)(C)C [Example 4a, (2R,3R,4S,5R,6E)-3,4,5-trihydroxy-2-methoxy-8,8-dimethyl-N-[(3S)-2-oxo-7-phenyl-2,3,4,5-tetrahydro-1H-1-benzazepin-3-yl]non-6-enamide], the Papp was 4.8 ×10⁻⁶ cm/s.

Test system: HCT116 cells
Test: Inhibition of the cell proliferation of HCT116 cells (14C-thymidine incorporation)
Assay type: cell-based
Conditions: Homo sapiens, HCT-116, 96 hours
Description: The antiproliferative activity of the products of the examples of Table 1 was determined by measuring the inhibition of the cell proliferation of HCT116 cells. The cells are seeded into a cell culture medium at a concentration of 10 000 cells per well, in 0.17 ml of medium, and 20 μl of test product, at various concentrations and 10 μl of thymidine [methyl-14C] (100 μCi/ml—specific activity 47.90 mCi/mmol; NEN Technologies reference NEC568 batch 3550-001) are added and the cells are then incubated at 37° C. and 5% CO2.
Medium used for the HCT116 cell culture: DMEM medium, 2 mM L-glutamine, 200 IU/ml penicillin, 200 μg/ml streptomycin and 10% (V/V) foetal calf serum (Life Technologies).
After 96 hours, the ^14C-thymidine incorporation is counted in a 1450 Microbeta Wallac Trilux liquid scintillation counter. The results R are expressed in cpm (counts per minute) and converted to percentage growth inhibition GI % by firstly subtracting the mean of the number of cpm of the wells without cells B and then dividing by the number of cpm of the wells of the nontreated cells C comprising 20 μl of product diluting medium containing 1% of ethanol (GI %=(R−B)×100/C %).
The IC50 values are calculated using equation 205 of the XLFit software (IDBS company, UK) by nonlinear regression analysis using the Marquardt algorithm (Donald W. MARQUARDT, J. Soc. industry. appl, vol 11, No. 2, June, 1963).
In the case of CO[C@@H](C(=O)N[C@H]1CCc2cc(Br)ccc2NC1=O)[C@H](O)[C@@H](O)[C@H](O)/C=C/C(C)(C)C [Example 3a], the IC50 is reported as 32 nM. Compound CO[C@@H](C(=O)N[C@H]1CCc2cc(-c3ccccc3)ccc2NC1=O)[C@H](O)[C@@H](O)[C@H](O)/C=C/C(C)(C)C [Example 4a, (2R,3R,4S,5R,6E)-3,4,5-trihydroxy-2-methoxy-8,8-dimethyl-N-[(3S)-2-oxo-7-phenyl-2,3,4,5-tetrahydro-1H-1-benzazepin-3-yl]non-6-enamide] has an IC50 of 14 nM. CO[C@@H](C(=O)NC1CCc2ccccc2N(C)C1=O)[C@H](O)[C@@H](O)[C@H](O)/C=C/C(C)(C)C (stereo partly shown) [Example 2] showed an IC50 of 15 nM. Compound CO[C@@H](C(=O)NC1CCc2cc(-c3ccccc3)ccc2NC1=O)[C@H](O)[C@@H](O)[C@H](O)/C=C/C(C)(C)C (stereo partly drawn) [Example 4, N-(7-phenyl-2-oxo-2,3,4,5-tetrahydro-1H-1-benzazepin-3-yl)-(E)-(2R,3R,4S,5R)-3,4,5-trihydroxy-2-methoxy-8,8-dimethylnon-6-enamide] has an IC50 of 75 nM. Compound CO[C@@H](C(=O)NC1CCc2ccccc2N(Cc2cc(F)cc(F)c2)C1=O)[C@H](O)[C@@H](O)[C@H](O)/C=C/C(C)(C)C (stereo partly shown) [Example 1] has an IC50 of 14 nM. CO[C@@H](C(=O)NC1CCc2cc(Br)ccc2NC1=O)[C@H](O)[C@@H](O)[C@H](O)/C=C/C(C)(C)C (stereo partly drawn) [Example 3, N-(7-bromo-2-oxo-2,3,4,5-tetrahydro-1H-1-benzazepin-3-yl)-(E)-(2R,3R,4S,5R)-3,4,5-trihydroxy-2-methoxy-8,8-dimethylnon-6-enamide] gave an IC50 of 58 nM.
